# Patent publication US4826982A, “Quinolonecarboxylic acid derivatives” (Kyorin Pharmaceutical Co., Ltd., priority 1985, dated 1989)
# Like-named read-outs stand apart in the source and are kept apart here.
# What was measured:
# Pst. micros UPI 5464-1 = assay: Antibacterial spectrum, MIC; conditions: Parvimonas micra, UPI54641
# [1] = system: S. aureus IID 670 (Terajima); assay: Antibacterial spectrum, MIC; format: cell-based; conditions: Staphylococcus aureus, IID670; 10^6 cells/ml; Gram +; standard strain
# From the text: (§1) In vitro antibacterial activity (standard strains)
# (§2) Organism (10^6 cells/ml)
# [2] = system: Staphylococcus aureus 209 P; assay: Antibacterial spectrum, MIC; format: cell-based; conditions: 10^6 cells/ml, Gram +, standard strain
# From the text: as §1, §2
# S. epidermidis IID 866 = assay: Antibacterial spectrum, MIC; format: cell-based; conditions: Staphylococcus epidermidis, IID866; 10^6 cells/ml; Gram +; standard strain
# From the text: as §1, §2
# [3] = system: Proteus vulgaris IFO 3167; assay: Antibacterial spectrum, MIC; format: cell-based; conditions: IFO3167, 10^6 cells/ml, Gram -, standard strain
# From the text: as §1, §2
# [4] = system: Klebsiella pneumoniae KY(GN)6445; assay: Antibacterial spectrum, MIC; format: cell-based; conditions: 10^6 cells/ml, Gram -, standard strain
# From the text: as §1, §2
# [5] = system: Acinetobacter anitratus IID 876; assay: Antibacterial spectrum, MIC; format: cell-based; conditions: Acinetobacter calcoaceticus, IID876; 10^6 cells/ml; Gram -; standard strain
# From the text: as §1, §2
# P. mirabilis IID 994 = assay: Antibacterial spectrum, MIC; format: cell-based; conditions: Proteus mirabilis, IID994; 10^6 cells/ml; Gram -; standard strain
# From the text: as §1, §2
# [6] = system: Salmonella enteritidis IID 604; assay: Antibacterial spectrum, MIC; format: cell-based; conditions: Salmonella enterica; 10^6 cells/ml; Gram -; standard strain
# From the text: as §1, §2
# B. distasonis 8503 = assay: Antibacterial spectrum, MIC; format: cell-based; conditions: Parabacteroides distasonis, 10^6 cells/ml, Gram -, standard strain
# From the text: as §1, §2
# E. faecalis IID 682 = assay: Antibacterial spectrum, MIC; format: cell-based; conditions: Enterococcus faecalis, IID682; 10^6 cells/ml; Gram +; standard strain
# From the text: as §1, §2
# [7] = system: Enterobacter cloacae IID 977; assay: Antibacterial spectrum, MIC; format: cell-based; conditions: IID977, 10^6 cells/ml, Gram -, standard strain
# From the text: as §1, §2
# [8] = system: Citrobacter freundii IID 976; assay: Antibacterial spectrum, MIC; format: cell-based; conditions: IID976, 10^6 cells/ml, Gram -, standard strain
# From the text: as §1, §2
# B. fragilis 25285 = assay: Antibacterial spectrum, MIC; format: cell-based; conditions: Bacteroides fragilis, 10^6 cells/ml, Gram -, standard strain
# From the text: as §1, §2
# [9] = system: Serratia marcescens IID 618; assay: Antibacterial spectrum, MIC; format: cell-based; conditions: IID618, 10^6 cells/ml, Gram -, standard strain
# From the text: as §1, §2
# B. fragilis 0558 = assay: Antibacterial spectrum, MIC; format: cell-based; conditions: Bacteroides fragilis, 10^6 cells/ml, Gram -, standard strain
# From the text: as §1, §2
# [10] = system: Streptococcus pyogenes (S-8); assay: Antibacterial spectrum, MIC; format: cell-based; conditions: 10^6 cells/ml, Gram +, standard strain
# From the text: as §1, §2
# [11] = system: Escherichia coli NIHJ JC-2; assay: Antibacterial spectrum, MIC; format: cell-based; conditions: NIHJJC2, 10^6 cells/ml, Gram -, standard strain
# From the text: as §1, §2
# Shigella sonnei IID 969 = assay: Antibacterial spectrum, MIC; format: cell-based; conditions: IID969, 10^6 cells/ml, Gram -, standard strain
# From the text: as §1, §2
# K. pneumoniae 1-220S = assay: Antibacterial spectrum, MIC; format: cell-based; conditions: Klebsiella pneumoniae, 1220S; 10^6 cells/ml; Gram -; standard strain
# From the text: as §1, §2
# [12] = system: Fusobacterium necrophorum S-45; assay: Antibacterial spectrum, MIC; format: cell-based; conditions: S45, 10^6 cells/ml, Gram -, standard strain
# From the text: as §1, §2
# S. pneumoniae IID 552 = assay: Antibacterial spectrum, MIC; format: cell-based; conditions: Streptococcus pneumoniae, IID552; 10^6 cells/ml; Gram +; standard strain
# From the text: as §1, §2
# E. coli ATCC l0536 = assay: Antibacterial spectrum, MIC; format: cell-based; conditions: Escherichia coli, ATCCL0536
# From the text: as §1, §2
# [13] = system: Alcaligenes faecalis 0114002; assay: Antibacterial spectrum, MIC; format: cell-based; conditions: 10^6 cells/ml, Gram -, standard strain
# From the text: as §1, §2
# [14] = system: Peptostreptococcus anaerobius KYA 27337; assay: Antibacterial spectrum, MIC; format: cell-based; conditions: KYA27337
# S. pyogenes IID 692 = assay: microbe, parasite or virus in culture; conditions: Streptococcus pyogenes, IID692
# [15] = system: Yersinia enterocolitica IID 981; assay: microbe, parasite or virus in culture; format: cell-based; conditions: IID981
# P. aeruginosa IFO 12689 = assay: microbe, parasite or virus in culture; conditions: Pseudomonas aeruginosa, IFO12689
# [16] = system: B. thetaiotaomicron (0661); assay: Antibacterial spectrum, MIC; format: cell-based; conditions: Bacteroides thetaiotaomicron
# [17] = system: Propionibacterium acens 11828; assay: Antibacterial spectrum, MIC; format: cell-based
# [18] = system: Peptococcus magnus KY 017; assay: microbe, parasite or virus in culture; conditions: Finegoldia magna, KY017
# C. ramosum = assay: Antibacterial spectrum, MIC; format: cell-based; conditions: Thomasclavelia ramosa
# [19] = system: Eubacterium lentum GAI 5242; assay: microbe, parasite or virus in culture; conditions: Eggerthella lenta, GAI5242
# [20] = system: Veillonella parvula KYA 10790; assay: Antibacterial spectrum, MIC; conditions: KYA10790
# [21] = system: Morganella morganii IID 602; assay: Antibacterial spectrum, MIC; format: cell-based; conditions: IID602
# F. varium KYA 8501 = assay: Antibacterial spectrum, MIC; format: cell-based; conditions: Fusobacterium varium, KYA8501
# [22] = system: Bacillus subtilis PCI 219; assay: Antibacterial spectrum, MIC by method recommended by Japan Society of Chemotherapy; format: cell-based; conditions: PCI219, 10^6 cells/ml, Gram +, standard strain
# From the text: as §1, §2
# [23] = system: Bacteroides fragilis GM 7000; assay: Antibacterial spectrum, MIC; conditions: GM7000
# [24] = system: Clostridium perfringens KYA 13123; assay: microbe, parasite or virus in culture; conditions: KYA13123
# [25] = system: Pseudomonas aeruginosa V-1; assay: Antibacterial spectrum, MIC; conditions: V1
# gram-positive bacteria = conditions: background art; cited from earlier work
# gram-negative bacteria = conditions: background art; CI-934 compared with Norfloxacin and Ciprofloxacin; cited from earlier work
# [26] = 10^6 cells/ml, Gram -, standard strain, read-out: MIC
smiles,measurement,setting,value
"O=C(O)c1cn(C2CC2)c2c(Br)c(N3CCNCC3)c(F)cc2c1=O [Exp. 17, 8-Bromo-1-cyclopropyl-6-fluoro-1,4-dihydro-4-oxo-7-(1-piperazinyl)-3-quinolinecarboxylic acid]",MIC,Pst. micros UPI 5464-1,0.39 µg/mL
same,MIC,[1],0.2 µg/mL
same,MIC,[2],0.1 µg/mL
same,MIC,S. epidermidis IID 866,0.2 µg/mL
same,MIC,[3],0.025 µg/mL
same,MIC,[4],0.025 µg/mL
same,MIC,[5],0.1 µg/mL
same,MIC,P. mirabilis IID 994,0.025 µg/mL
same,MIC,[6],0.025 µg/mL
same,MIC,B. distasonis 8503,1.56 µg/mL
same,MIC,E. faecalis IID 682,0.39 µg/mL
same,MIC,[7],0.05 µg/mL
same,MIC,[8],0.025 µg/mL
same,MIC,B. fragilis 25285,0.78 µg/mL
same,MIC,[9],0.05 µg/mL
same,MIC,B. fragilis 0558,0.78 µg/mL
same,MIC,[10],0.39 µg/mL
same,MIC,[11],0.0125 µg/mL
same,MIC,Shigella sonnei IID 969,0.025 µg/mL
same,MIC,K. pneumoniae 1-220S,0.05 µg/mL
same,MIC,[12],0.78 µg/mL
same,MIC,S. pneumoniae IID 552,0.78 µg/mL
same,MIC,E. coli ATCC l0536,0.025 µg/mL
same,MIC,[13],0.2 µg/mL
same,MIC,[14],1.56 µg/mL
same,MIC,S. pyogenes IID 692,0.78 µg/mL
same,MIC,[15],0.05 µg/mL
same,MIC,P. aeruginosa IFO 12689,0.78 µg/mL
same,MIC,[16],1.56 µg/mL
same,MIC,[17],6.25 µg/mL
same,MIC,[18],0.39 µg/mL
same,MIC,C. ramosum,6.25 µg/mL
same,MIC,[19],0.39 µg/mL
same,MIC,[20],0.39 µg/mL
same,MIC,[21],0.05 µg/mL
same,MIC,F. varium KYA 8501,3.13 µg/mL
same,MIC,[22],0.05 µg/mL
same,MIC,[23],0.78 µg/mL
same,MIC,[24],0.78 µg/mL
same,MIC,[25],0.39 µg/mL
CCn1cc(C(=O)O)c(=O)c2cc(F)c(N3CCNCC3)cc21 [Norfloxacin],activity against gram-positive bacteria,gram-positive bacteria,effective
same,activity against gram-negative bacteria,gram-negative bacteria,effective
"CC1COc2c(N3CCN(C)CC3)c(F)cc3c(=O)c(C(=O)O)cn1c23 (stereo not shown) [OFLX, ofloxacin, reference compound]",MIC,Pst. micros UPI 5464-1,0.78 µg/mL
same,MIC,[1],0.39 µg/mL
same,MIC,[2],0.2 µg/mL
same,MIC,S. epidermidis IID 866,0.39 µg/mL
same,MIC,[3],0.05 µg/mL
same,MIC,[4],0.05 µg/mL
same,MIC,[5],0.2 µg/mL
same,MIC,P. mirabilis IID 994,0.05 µg/mL
same,MIC,[6],0.1 µg/mL
same,MIC,B. distasonis 8503,6.25 µg/mL
same,MIC,E. faecalis IID 682,1.56 µg/mL
same,MIC,[7],0.1 µg/mL
same,MIC,[8],0.1 µg/mL
same,MIC,B. fragilis 25285,1.56 µg/mL
same,MIC,[9],0.1 µg/mL
same,MIC,B. fragilis 0558,1.56 µg/mL
same,MIC,[10],1.56 µg/mL
same,MIC,[11],≤ 0.025 µg/mL
same,MIC,Shigella sonnei IID 969,0.05 µg/mL
same,MIC,K. pneumoniae 1-220S,0.2 µg/mL
same,MIC,[12],1.56 µg/mL
same,MIC,S. pneumoniae IID 552,1.56 µg/mL
same,MIC,E. coli ATCC l0536,0.05 µg/mL
same,MIC,[13],0.78 µg/mL
same,MIC,[14],3.13 µg/mL
same,MIC,S. pyogenes IID 692,3.13 µg/mL
same,MIC,[15],0.2 µg/mL
same,MIC,P. aeruginosa IFO 12689,3.13 µg/mL
same,MIC,[16]; [26],6.25 µg/mL
same,MIC,[17],12.5 µg/mL
same,MIC,[18],0.78 µg/mL
same,MIC,"C. ramosum; 10^6 cells/ml, Gram +, standard strain, read-out: MIC",12.5 µg/mL
same,MIC,[19],0.78 µg/mL
same,MIC,[20],0.78 µg/mL
same,MIC,[21],0.1 µg/mL
same,MIC,F. varium KYA 8501; [26],12.5 µg/mL
same,MIC,[22],0.1 µg/mL
same,MIC,[23],3.13 µg/mL
same,MIC,[24],0.78 µg/mL
same,MIC,[25],0.39 µg/mL
